How the values were obtained:
Assay type in all cases: functional
HOP-92 = assay: Growth inhibition of human HOP92 cells assessed as cell growth at 10 uM after 48 hrs by sulforhodamine B assay relative to control; conditions: HOP-92, 48 h, read-out: Activity
OVCAR-3 = assay: Growth inhibition of human OVCAR3 cells assessed as cell growth at 10 uM after 48 hrs by sulforhodamine B assay relative to control; conditions: OVCAR-3, 48 h, read-out: Activity
SK-MEL-2 = assay: Growth inhibition of human SK-MEL-2 cells assessed as cell growth at 10 uM after 48 hrs by sulforhodamine B assay relative to control; conditions: SK-MEL-2, 48 h, read-out: Activity
COLO 205 = assay: Growth inhibition of human COLO205 cells assessed as cell growth at 10 uM after 48 hrs by sulforhodamine B assay relative to control; conditions: COLO 205, 48 h, read-out: Activity
DU-145 = assay: Growth inhibition of human DU145 cells assessed as cell growth at 10 uM after 48 hrs by sulforhodamine B assay relative to control; conditions: DU-145, 48 h, read-out: Activity
NCI-H460 = assay: Growth inhibition of human NCI-H460 cells assessed as cell growth at 10 uM after 48 hrs by sulforhodamine B assay relative to control; conditions: NCI-H460, 48 h, read-out: Activity
SNB-19 = assay: Growth inhibition of human SNB19 cells assessed as cell growth at 10 uM after 48 hrs by sulforhodamine B assay relative to control; conditions: SNB-19, 48 h, read-out: Activity
MOLT-4 = assay: Growth inhibition of human MOLT4 cells assessed as cell growth at 10 uM after 48 hrs by sulforhodamine B assay relative to control; conditions: MOLT-4, 48 h, read-out: Activity
OVCAR-5 = assay: Growth inhibition of human OVCAR5 cells assessed as cell growth at 10 uM after 48 hrs by sulforhodamine B assay relative to control; conditions: OVCAR-5, 48 h, read-out: Activity
786-0 = assay: Growth inhibition of human 786-0 cells assessed as cell growth at 10 uM after 48 hrs by sulforhodamine B assay relative to control; conditions: 786-0, 48 h, read-out: Activity
MCF7 = assay: Growth inhibition of human MCF7 cells assessed as cell growth at 10 uM after 48 hrs by sulforhodamine B assay relative to control; conditions: MCF7, 48 h, read-out: Activity
MDA-MB-435 = assay: Growth inhibition of human MDA-MB-435 cells assessed as cell growth at 10 uM after 48 hrs by sulforhodamine B assay relative to control; conditions: MDA-MB-435, 48 h, read-out: Activity
CAKI-1 = assay: Growth inhibition of human Caki1 cells assessed as cell growth at 10 uM after 48 hrs by sulforhodamine B assay relative to control; conditions: CAKI-1, 48 h, read-out: Activity
HL-60(TB) = assay: Growth inhibition of human HL-60(TB) cells assessed as cell growth at 10 uM after 48 hrs by sulforhodamine B assay relative to control; conditions: HL-60, 48 h, read-out: Activity
HCC 2998 = assay: Growth inhibition of human HCC2998 cells assessed as cell growth at 10 uM after 48 hrs by sulforhodamine B assay relative to control; conditions: HCC 2998, 48 h, read-out: Activity
U-251 = assay: Growth inhibition of human U251 cells assessed as cell growth at 10 uM after 48 hrs by sulforhodamine B assay relative to control; conditions: U-251, 48 h, read-out: Activity
Malme-3M = assay: Growth inhibition of human MALME-3M cells assessed as cell growth at 10 uM after 48 hrs by sulforhodamine B assay relative to control; conditions: read-out: Activity
PC-3 = assay: Growth inhibition of human PC3 cells assessed as cell growth at 10 uM after 48 hrs by sulforhodamine B assay relative to control; conditions: PC-3, 48 h, read-out: Activity
RXF 393 = assay: Growth inhibition of human RXF393 cells assessed as cell growth at 10 uM after 48 hrs by sulforhodamine B assay relative to control; conditions: RXF 393, 48 h, read-out: Activity
NCI-H226 = assay: Growth inhibition of human NCI-H226 cells assessed as cell growth at 10 uM after 48 hrs by sulforhodamine B assay relative to control; conditions: NCI-H226, 48 h, read-out: Activity
SF-539 = assay: Growth inhibition of human SF539 cells assessed as cell growth at 10 uM after 48 hrs by sulforhodamine B assay relative to control; conditions: SF-539, 48 h, read-out: Activity
MDA-MB-468 = assay: Growth inhibition of human MDA-MB-468 cells assessed as cell growth at 10 uM after 48 hrs by sulforhodamine B assay relative to control; conditions: MDA-MB-468, 48 h, read-out: Activity
NCI-H522 = assay: Growth inhibition of human NCI-H522 cells assessed as cell growth at 10 uM after 48 hrs by sulforhodamine B assay relative to control; conditions: NCI-H522, 48 h, read-out: Activity
HOP-62 = assay: Growth inhibition of human HOP62 cells assessed as cell growth at 10 uM after 48 hrs by sulforhodamine B assay relative to control; conditions: HOP-62, 48 h, read-out: Activity
UACC-62 = assay: Growth inhibition of human UACC62 cells assessed as cell growth at 10 uM after 48 hrs by sulforhodamine B assay relative to control; conditions: UACC-62, 48 h, read-out: Activity

SMILES	growth at 10 µM (HOP-92)	growth at 10 µM (OVCAR-3)	growth at 10 µM (SK-MEL-2)	growth at 10 µM (COLO 205)	growth at 10 µM (DU-145)	growth at 10 µM (NCI-H460)	growth at 10 µM (SNB-19)	growth at 10 µM (MOLT-4)	growth at 10 µM (OVCAR-5)	growth at 10 µM (786-0)	growth at 10 µM (MCF7)	growth at 10 µM (MDA-MB-435)	growth at 10 µM (CAKI-1)	growth at 10 µM (HL-60(TB))	growth at 10 µM (HCC 2998)	growth at 10 µM (U-251)	growth at 10 µM (Malme-3M)	growth at 10 µM (PC-3)	growth at 10 µM (RXF 393)	growth at 10 µM (NCI-H226)	other results
COc1ccc(Cn2cc(C(=O)N/N=C3/C(=O)Nc4ccc(Cl)cc43)nn2)cc1	116%	109%	99%	117%	102%	102%	98.5%	90.6%	114%	99.8%	91.5%	104%	101%	93.2%	107%	107%	95%	94.9%	103%	96.8%	growth at 10 µM (SF-539): 106%; growth at 10 µM (MDA-MB-468): 97.2%; growth at 10 µM (NCI-H522): 90.6%; growth at 10 µM (HOP-62): 112%; growth at 10 µM (UACC-62): 101%
COc1ccc(Cn2cc(C(=O)N/N=C3/C(=O)Nc4ccc(F)cc43)nn2)cc1	98.8%	112%	109%	111%	103%	106%	96.8%	107%	94.7%	97.6%	89.5%	103%	97.4%	101%	99.3%	99.9%	104%	98.4%	110%	98.5%	growth at 10 µM (SF-539): 107%; growth at 10 µM (MDA-MB-468): 87.8%; growth at 10 µM (NCI-H522): 86.1%; growth at 10 µM (HOP-62): 102%; growth at 10 µM (UACC-62): 88.6%
COc1ccc(Cn2cc(C(=O)N/N=C3/C(=O)Nc4c(F)cccc43)nn2)cc1	83.8%	111%	93.3%	95%	102%	105%	94.2%	96.5%	94.8%	101%	94.1%	102%	84.2%	90.7%	102%	94.6%	78.2%	83.3%	86.3%	91.9%	growth at 10 µM (SF-539): 92.7%; growth at 10 µM (MDA-MB-468): 89.6%; growth at 10 µM (NCI-H522): 88.6%; growth at 10 µM (HOP-62): 98.4%; growth at 10 µM (UACC-62): 89.3%
COc1ccc(Cn2cc(C(=O)N/N=C3/C(=O)Nc4ccc(C)cc43)nn2)cc1	121%	108%	92.9%	107%	96%	105%	98%	87.8%	105%	96.3%	89.2%	101%	95.4%	84.8%	99.9%	105%	106%	97.3%	117%	93%	growth at 10 µM (SF-539): 103%; growth at 10 µM (MDA-MB-468): 99.2%; growth at 10 µM (NCI-H522): 83.6%; growth at 10 µM (HOP-62): 112%; growth at 10 µM (UACC-62): 94.6%
COc1ccc(Cn2cc(C(=O)N/N=C3/C(=O)Nc4c(Cl)cccc43)nn2)cc1	105%	113%	93.2%	114%	105%	99.7%	93.6%	84.8%	123%	106%	84.3%	101%	94.4%	97.3%	99.3%	102%	99.7%	96.7%	109%	102%	growth at 10 µM (SF-539): 108%; growth at 10 µM (MDA-MB-468): 98.6%; growth at 10 µM (NCI-H522): 84%; growth at 10 µM (HOP-62): 110%; growth at 10 µM (UACC-62): 102%
COc1ccc(Cn2cc(C(=O)N/N=C3/C(=O)Nc4ccc(Br)cc43)nn2)cc1	114%	112%	98%	115%	93.7%	111%	97.3%	80.6%	106%	99.6%	86.3%	101%	97.7%	85.2%	98.5%	105%	-89.9%	99.8%	99.8%	97.5%	growth at 10 µM (SF-539): 104%; growth at 10 µM (MDA-MB-468): 96.8%; growth at 10 µM (NCI-H522): 89.1%; growth at 10 µM (HOP-62): 111%; growth at 10 µM (UACC-62): 97.2%

— ChEMBL document CHEMBL4411296, “Design and development of Isatin-triazole hydrazones as potential inhibitors of microtubule affinity-regulating kinase 4 for the therapeutic management of cell proliferation and metastasis” (Eur J Med Chem, 2019)
